From patent US9617242B2, “Histone demethylase inhibitors” (priority 2012, dated 2017)
Counter-ions that a name gives are not always drawn.

Key:
Jarid1A = Jarid1A (Homo sapiens (Human), UniProt P29375); assay: Jarid1A in vitro enzyme inhibition assay (TR-FRET); type: biochemical
Jarid1B = Jarid1B (Homo sapiens (Human), UniProt Q9UGL1); assay: Jarid1B in vitro enzyme inhibition assay (TR-FRET); type: biochemical
JMJD2C = JMJD2C (Homo sapiens (Human), UniProt Q9H3R0); assay: JMJD2C in vitro enzyme inhibition assay (TR-FRET); type: biochemical
KDM5A/B = assay: In vitro cell-based assay: tri-methyl H3K4 immuno-blotting in ZR-75-1 breast cancer cells; conditions: 72 hours, read-out: Cellular IC50
Method: This quantitative immuno-blotting assay measures the amount tri-methylated histone H3 at amino acid Lysine number 4, a specific substrate […] of the direct enzymatic activity of the histone demethylases KDM5A and KDM5B from extracts of the ZR-75-1 breast cancer cell line.
This assay is a fluorometric immunoassay for the quantification of tri-methyl H3K4 extracted from cells treated with test compound and is used as a measure of the cellular inhibition of KDM5A/B.
Extracts were prepared containing all of the cellular histone material using detergent based lysis and sonication methods. These lysates were subsequently normalized for total protein content using a colorimetric bicinchonic acid assay (MicroBCA Pierce/Thermo Scientific). Normalized cell extracts were then subjected to typical immuno-blotting procedures using NuPage reagents (Life Technologies). Electrophoretically separated histones were then transferred and immobilized using polyvinylidene difluoride membrane (Immobilon-FL Millipore). The amount of tri-methylated lysine 4 of histone H3 was detected using an antibody specific to the tri-methylated state (Cell Signaling Technologies) and quantified on an infrared imager using a densitometry software package (Odyssey CLx, Image Studio, Li-Cor). This background subtracted densitometry value was reported as a ration of the GAPDH amount for that sample and then calculated as a percent of the DMSO treated sample. The software package XL-fit (IDBS) was then used to calculate a relative IC50 value for the dilution series of a given test compound according to the equation: fit=(D+((Vmax*(x^n))/((x^n)+(Km^n)))).

Sequence of Jarid1A (P29375 1-1090): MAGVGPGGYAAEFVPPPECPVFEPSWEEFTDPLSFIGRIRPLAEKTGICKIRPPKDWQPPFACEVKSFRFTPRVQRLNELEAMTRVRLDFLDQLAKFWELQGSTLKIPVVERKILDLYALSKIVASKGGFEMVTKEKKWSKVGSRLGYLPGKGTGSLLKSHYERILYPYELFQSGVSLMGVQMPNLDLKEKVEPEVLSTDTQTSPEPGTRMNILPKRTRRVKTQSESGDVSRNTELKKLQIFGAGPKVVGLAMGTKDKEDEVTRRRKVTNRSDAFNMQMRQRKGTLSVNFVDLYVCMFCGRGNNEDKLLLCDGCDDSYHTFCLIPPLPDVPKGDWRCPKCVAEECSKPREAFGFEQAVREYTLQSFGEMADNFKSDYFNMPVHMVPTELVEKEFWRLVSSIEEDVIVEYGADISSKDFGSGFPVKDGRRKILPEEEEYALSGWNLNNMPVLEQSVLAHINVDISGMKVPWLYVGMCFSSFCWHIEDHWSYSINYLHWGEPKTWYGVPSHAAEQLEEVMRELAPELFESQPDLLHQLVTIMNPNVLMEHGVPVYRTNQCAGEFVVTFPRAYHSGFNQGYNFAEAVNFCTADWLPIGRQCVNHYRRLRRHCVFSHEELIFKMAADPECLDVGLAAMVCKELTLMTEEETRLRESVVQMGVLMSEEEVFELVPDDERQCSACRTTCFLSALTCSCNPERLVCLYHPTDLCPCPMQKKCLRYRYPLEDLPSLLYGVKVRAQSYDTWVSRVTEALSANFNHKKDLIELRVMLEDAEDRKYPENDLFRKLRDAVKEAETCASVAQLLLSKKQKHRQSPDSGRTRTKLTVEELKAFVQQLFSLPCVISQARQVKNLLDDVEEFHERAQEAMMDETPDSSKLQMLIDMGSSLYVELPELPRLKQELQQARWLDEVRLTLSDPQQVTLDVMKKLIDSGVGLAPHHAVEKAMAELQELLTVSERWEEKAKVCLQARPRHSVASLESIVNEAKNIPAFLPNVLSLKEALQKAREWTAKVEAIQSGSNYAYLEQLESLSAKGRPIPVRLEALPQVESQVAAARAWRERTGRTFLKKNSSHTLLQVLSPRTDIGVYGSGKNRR
Sequence of JMJD2C (Q9H3R0 2-372): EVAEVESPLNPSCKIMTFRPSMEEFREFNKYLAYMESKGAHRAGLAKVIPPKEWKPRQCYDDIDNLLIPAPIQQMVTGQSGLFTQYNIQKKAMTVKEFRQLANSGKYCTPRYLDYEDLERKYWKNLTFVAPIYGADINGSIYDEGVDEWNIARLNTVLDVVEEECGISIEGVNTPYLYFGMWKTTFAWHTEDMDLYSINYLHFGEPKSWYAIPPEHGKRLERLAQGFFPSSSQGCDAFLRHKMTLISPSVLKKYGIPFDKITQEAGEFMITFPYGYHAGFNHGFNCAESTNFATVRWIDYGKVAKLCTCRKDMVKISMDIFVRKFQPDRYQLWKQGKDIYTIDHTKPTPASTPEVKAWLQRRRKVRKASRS
Sequence of Jarid1B (Q9UGL1 2-751): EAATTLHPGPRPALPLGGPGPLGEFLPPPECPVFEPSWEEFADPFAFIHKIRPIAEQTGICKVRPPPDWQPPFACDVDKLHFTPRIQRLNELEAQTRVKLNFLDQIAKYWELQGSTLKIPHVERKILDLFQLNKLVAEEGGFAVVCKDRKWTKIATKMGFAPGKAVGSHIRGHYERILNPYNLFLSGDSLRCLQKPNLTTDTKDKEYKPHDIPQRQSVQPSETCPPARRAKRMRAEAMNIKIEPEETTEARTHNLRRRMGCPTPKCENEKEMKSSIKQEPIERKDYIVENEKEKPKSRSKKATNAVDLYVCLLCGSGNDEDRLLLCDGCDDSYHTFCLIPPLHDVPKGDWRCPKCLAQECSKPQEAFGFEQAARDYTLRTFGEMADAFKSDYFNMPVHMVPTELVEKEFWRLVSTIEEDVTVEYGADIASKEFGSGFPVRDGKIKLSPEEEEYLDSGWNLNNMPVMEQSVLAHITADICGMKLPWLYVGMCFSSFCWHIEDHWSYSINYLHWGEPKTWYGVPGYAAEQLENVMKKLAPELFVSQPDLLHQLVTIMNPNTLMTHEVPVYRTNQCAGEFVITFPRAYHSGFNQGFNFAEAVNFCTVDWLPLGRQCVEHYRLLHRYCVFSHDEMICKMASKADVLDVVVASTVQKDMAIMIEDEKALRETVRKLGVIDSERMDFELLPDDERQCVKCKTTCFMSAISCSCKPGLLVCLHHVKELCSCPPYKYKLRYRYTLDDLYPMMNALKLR

SMILES	IC50 (Jarid1A)	IC50 (Jarid1B)	IC50 (JMJD2C)	IC50 (KDM5A/B)
O=C(O)c1ccncc1Nc1nn(CCN2CCC(F)(F)C2)c2ccc(F)cc12 [Example 71, 3-({1-[2-(3,3-difluoropyrrolidin-1yl)ethyl]-5-fluoro-1H-indazol-3-yl}amino)pyridine-4-carboxylic acid]	< 100 nM	< 100 nM	< 100 nM	1000 to 10000 nM
O=C(O)c1ccncc1Nc1nn(CCCO)c2ccc(F)cc12 [Example 42, 3-{[5-fluoro-1-(3-hydroxypropyl)-1H-indazol-3-yl]amino}pyridine-4-carboxylic acid]	< 100 nM	< 100 nM	< 100 nM	1000 to 10000 nM
O=C(O)c1ccncc1Nc1nn([C@@H]2CCOC2)c2ccc(F)cc12 [Example 67, 3-({5-fluoro-1-[(3R)-tetrahydrofuran-3-yl]-1H-indazol-3-yl}amino)pyridine-4-carboxylic acid]	< 100 nM	< 100 nM	< 100 nM	1000 to 10000 nM
CC(O)Cn1nc(Nc2cnccc2C(=O)O)c2cc(F)ccc21 (centres unmarked) [Example 51, 3-{[5-fluoro-1-(2-hydroxypropyl)-1H-indazol-3-yl]amino}pyridine-4-carboxylic acid]	< 100 nM	< 100 nM	< 100 nM	1000 to 10000 nM

Now from value to molecule:

IC50 (Jarid1A)	IC50 (Jarid1B)	IC50 (JMJD2C)	IC50 (KDM5A/B)	SMILES
< 100 nM	< 100 nM	< 100 nM	100 to 1000 nM	O=C(O)c1ccncc1Nc1nn(CCN2CCC(F)(F)CC2)c2ccc(F)cc12 [Example 73, 3-({1-[2-(4,4-difluoropiperidin-1yl)ethyl]-5-fluoro-1H-indazol-3-yl}amino)pyridine-4-carboxylic acid]
< 100 nM	< 100 nM	< 100 nM	> 10000 nM	CN(C)CCOCCn1nc(Nc2cnccc2C(=O)O)c2cc(F)ccc21 [Example 27, 3-[(1-{2-[2-(dimethylamino)ethoxy]ethyl}-5-fluoro-1H-indazol-3-yl)amino]pyridine-4-carboxylic acid, acetic acid salt]
< 100 nM	< 100 nM	< 100 nM	1000 to 10000 nM	CN1CCOC(CCn2nc(Nc3cnccc3C(=O)O)c3cc(F)ccc32)C1 (centres unmarked) [Example 58, 3-({5-fluoro-1-[2-(4-methylmorpholin-2-yl)ethyl]-1H-indazol-3-yl}amino)pyridine-4-carboxylic acid]
< 100 nM	< 100 nM	< 100 nM	> 10000 nM	O=C(O)c1ccncc1Nc1nn(CC(O)CO)c2ccc(F)cc12 (centres unmarked) [Example 48, 3-{[1-(2,3-dihydroxypropyl)-5-fluoro-1H-indazol-3-yl]amino}pyridine-4-carboxylic acid]
